How the values were obtained:
[1] = target: T1, HiBiT-BRM fusion protein in stable HeLa cell line (Homo sapiens, UniProt P51531); experiment: HiBiT-BRM cell-based degradation assay (Nano-Glo HiBiT Lytic Detection, 24 h); set-up: DC50: scale not given here; details: HeLa HiBiT-BRM cells; for DC50: read-out: BRM HiBit Degradation IC50; for BRM HiBit Degradation Maximum (%): top dose 30 μM
T1 construct: expressed in transfected cells
In short: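 Stable HiBiT-BRM HeLa cells treated 24 h with 10-point 3-fold dilutions, top final dose 30 μM, in duplicate. Luminescence read after lytic LgBiT reagent. Percent degradation was normalised to DMSO (high control) and 2 μM reference BRM/BRG1 degrader (low control).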

[2] = target: T2, HiBit-BRG1 fusion protein in stable HeLa cell line expressing HiBit-BRG1 and LgBit (Homo sapiens, UniProt P51532); experiment: HiBiT-BRG1 cell-based degradation assay (Nano-Glo HiBiT, 24 h); details: HeLa HiBit-BRG1/LgBit cells; for DC50: read-out: BRMG1 HiBit Degradation IC50; for Dmax: top dose 30 μM, read-out: BRG1 HiBit Degradation Maximum (%)
T2 construct: expressed in transfected cells
In short: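 Stable HeLa line co-expressing HiBiT-BRG1 and LgBiT, compound-treated 24 h; luminescence read after Nano-Glo HiBiT lytic reagent. % degradation normalised between DMSO (high control) and 2 μM reference BRM/BRG1 degrader (low control).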

T1 sequence (P51531 whole entry, the tested form may be a part): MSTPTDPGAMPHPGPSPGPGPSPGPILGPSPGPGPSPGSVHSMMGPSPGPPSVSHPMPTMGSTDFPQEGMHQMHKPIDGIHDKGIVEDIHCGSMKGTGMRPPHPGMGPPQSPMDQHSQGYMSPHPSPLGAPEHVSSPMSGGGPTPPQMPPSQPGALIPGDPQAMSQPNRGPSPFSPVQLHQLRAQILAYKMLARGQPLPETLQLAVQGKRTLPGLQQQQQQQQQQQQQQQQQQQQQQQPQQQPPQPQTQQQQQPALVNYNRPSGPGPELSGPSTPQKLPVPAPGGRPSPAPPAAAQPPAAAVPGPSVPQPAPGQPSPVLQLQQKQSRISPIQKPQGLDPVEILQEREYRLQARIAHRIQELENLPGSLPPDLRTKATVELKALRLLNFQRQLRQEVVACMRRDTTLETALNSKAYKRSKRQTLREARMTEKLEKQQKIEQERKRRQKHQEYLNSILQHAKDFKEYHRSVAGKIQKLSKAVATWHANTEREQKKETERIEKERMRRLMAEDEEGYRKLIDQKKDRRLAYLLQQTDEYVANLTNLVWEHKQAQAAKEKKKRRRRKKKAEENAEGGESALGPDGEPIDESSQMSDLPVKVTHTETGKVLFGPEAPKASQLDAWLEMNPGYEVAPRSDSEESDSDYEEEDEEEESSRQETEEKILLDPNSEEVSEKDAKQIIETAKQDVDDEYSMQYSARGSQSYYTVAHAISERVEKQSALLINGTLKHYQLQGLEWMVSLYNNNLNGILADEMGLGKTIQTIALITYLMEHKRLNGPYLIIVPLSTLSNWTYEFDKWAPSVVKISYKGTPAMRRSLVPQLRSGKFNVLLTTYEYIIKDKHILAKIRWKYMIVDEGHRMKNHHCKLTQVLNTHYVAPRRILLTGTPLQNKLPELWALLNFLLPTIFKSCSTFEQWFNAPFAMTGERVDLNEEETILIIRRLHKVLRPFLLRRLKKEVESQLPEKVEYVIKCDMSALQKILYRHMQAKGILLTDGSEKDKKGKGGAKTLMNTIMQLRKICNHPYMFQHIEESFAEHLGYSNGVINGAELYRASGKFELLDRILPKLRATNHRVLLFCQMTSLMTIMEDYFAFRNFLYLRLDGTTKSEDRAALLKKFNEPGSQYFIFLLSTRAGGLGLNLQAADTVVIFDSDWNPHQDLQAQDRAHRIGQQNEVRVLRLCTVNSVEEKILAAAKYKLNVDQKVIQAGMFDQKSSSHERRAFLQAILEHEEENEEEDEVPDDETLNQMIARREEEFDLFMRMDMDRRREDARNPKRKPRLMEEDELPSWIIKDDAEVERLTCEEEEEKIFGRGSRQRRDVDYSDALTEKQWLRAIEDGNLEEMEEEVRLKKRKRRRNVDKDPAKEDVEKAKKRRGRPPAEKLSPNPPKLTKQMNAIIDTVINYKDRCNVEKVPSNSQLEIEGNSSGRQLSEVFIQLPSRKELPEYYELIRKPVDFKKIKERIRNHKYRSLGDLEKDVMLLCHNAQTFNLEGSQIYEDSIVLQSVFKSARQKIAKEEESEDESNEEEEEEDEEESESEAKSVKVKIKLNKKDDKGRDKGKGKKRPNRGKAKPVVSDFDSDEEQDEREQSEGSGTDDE
T2 sequence (P51532 whole entry, the tested form may be a part): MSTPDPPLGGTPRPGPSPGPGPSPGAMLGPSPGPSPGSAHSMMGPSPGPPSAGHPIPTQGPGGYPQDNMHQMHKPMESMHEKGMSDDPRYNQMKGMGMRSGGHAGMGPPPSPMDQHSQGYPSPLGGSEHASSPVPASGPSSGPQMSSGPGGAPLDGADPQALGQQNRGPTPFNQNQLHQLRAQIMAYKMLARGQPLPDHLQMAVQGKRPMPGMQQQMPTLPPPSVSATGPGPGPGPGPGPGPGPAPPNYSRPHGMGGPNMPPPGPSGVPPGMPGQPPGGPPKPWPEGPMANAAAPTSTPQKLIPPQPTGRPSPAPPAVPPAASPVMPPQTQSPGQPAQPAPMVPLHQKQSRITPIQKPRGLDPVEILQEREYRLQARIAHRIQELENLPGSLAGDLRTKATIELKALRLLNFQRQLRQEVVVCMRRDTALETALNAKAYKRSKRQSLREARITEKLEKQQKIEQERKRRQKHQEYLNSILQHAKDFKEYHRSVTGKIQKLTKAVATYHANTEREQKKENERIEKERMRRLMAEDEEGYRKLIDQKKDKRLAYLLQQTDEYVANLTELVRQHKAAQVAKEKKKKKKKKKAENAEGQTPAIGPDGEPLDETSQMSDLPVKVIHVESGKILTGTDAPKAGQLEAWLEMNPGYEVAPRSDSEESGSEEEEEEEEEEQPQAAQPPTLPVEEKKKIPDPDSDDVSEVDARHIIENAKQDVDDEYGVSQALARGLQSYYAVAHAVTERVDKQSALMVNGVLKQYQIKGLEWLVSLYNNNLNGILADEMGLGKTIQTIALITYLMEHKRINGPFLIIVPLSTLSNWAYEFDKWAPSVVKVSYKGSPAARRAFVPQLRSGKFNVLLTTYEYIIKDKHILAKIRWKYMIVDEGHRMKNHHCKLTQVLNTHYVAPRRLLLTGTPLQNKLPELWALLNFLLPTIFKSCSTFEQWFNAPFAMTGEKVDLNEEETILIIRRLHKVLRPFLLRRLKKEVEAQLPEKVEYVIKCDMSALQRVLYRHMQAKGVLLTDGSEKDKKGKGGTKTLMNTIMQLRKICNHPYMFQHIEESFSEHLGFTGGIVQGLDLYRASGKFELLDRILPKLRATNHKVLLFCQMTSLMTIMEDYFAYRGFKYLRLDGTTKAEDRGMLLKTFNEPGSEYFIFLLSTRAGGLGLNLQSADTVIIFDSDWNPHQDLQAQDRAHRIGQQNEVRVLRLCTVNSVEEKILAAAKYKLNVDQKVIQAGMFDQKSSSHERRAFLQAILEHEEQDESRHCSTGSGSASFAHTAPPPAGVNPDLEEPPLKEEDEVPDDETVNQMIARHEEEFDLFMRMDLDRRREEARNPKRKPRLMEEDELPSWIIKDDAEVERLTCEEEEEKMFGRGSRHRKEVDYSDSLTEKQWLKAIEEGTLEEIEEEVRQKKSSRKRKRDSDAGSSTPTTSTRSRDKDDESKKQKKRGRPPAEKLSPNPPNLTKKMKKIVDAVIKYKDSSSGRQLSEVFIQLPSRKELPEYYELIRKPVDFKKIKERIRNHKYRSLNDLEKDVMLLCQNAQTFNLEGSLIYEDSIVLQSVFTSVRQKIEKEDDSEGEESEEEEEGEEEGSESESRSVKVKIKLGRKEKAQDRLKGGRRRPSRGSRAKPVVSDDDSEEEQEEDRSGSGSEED

Structure (SMILES)	DC50 [1] [nM]	DC50 [2] [nM]	Dmax [2] [%]	BRM HiBit Degradation Maximum (%) [1]
Cc1ncsc1-c1ccc([C@H](C)NC(=O)[C@@H]2C[C@@H](O)CN2C(=O)[C@@H](c2cc(N3CCC4(CC3)CC(Oc3ccc5cc(-c6ccccc6O)nnc5c3)C4)no2)C(C)C)cc1 [Compound 78, (2S,4R)-4-hydroxy-1-((R)-2-(3-(2-((3-(2-hydroxyphenyl)cinnolin-7-yl)oxy)-7-azaspiro[3.5]nonan-7-yl)isoxazol-5-yl)-3-methylbutanoyl)-N-((S)-1-(4-(4-methylthiazol-5-yl)phenyl)ethyl)pyrrolidine-2-carboxamide]	> 10		< 50	A (“A” indicates maximum degradation ≥75%)
Cc1nc(N2CCC(c3ccc4cc(-c5ccccc5O)nnc4c3)CC2)ccc1-c1cc([C@H](C(=O)N2C[C@H](O)C[C@H]2C(=O)N[C@@H](C)c2ccc(-c3scnc3C)cc2)C(C)C)on1 [Compound 80, (2S,4R)-4-hydroxy-1-((R)-2-(3-(6-(4-(3-(2-hydroxyphenyl)cinnolin-7-yl)piperidin-1-yl)-2-methylpyridin-3-yl)isoxazol-5-yl)-3-methylbutanoyl)-N-((S)-1-(4-(4-methylthiazol-5-yl)phenyl)ethyl)pyrrolidine-2-carboxamide]	< 10	> 10	> 75	A (“A” indicates maximum degradation ≥75%)
Cc1cc(N2CCC(c3ccc4cc(-c5ccccc5O)nnc4c3)CC2)ncc1-c1cc([C@H](C(=O)N2C[C@H](O)C[C@H]2C(=O)N[C@@H](C)c2ccc(-c3scnc3C)cc2)C(C)C)on1 [Compound 81, (2S,4R)-4-hydroxy-1-((R)-2-(3-(6-(4-(3-(2-hydroxyphenyl)cinnolin-7-yl)piperidin-1-yl)-4-methylpyridin-3-yl)isoxazol-5-yl)-3-methylbutanoyl)-N-((S)-1-(4-(4-methylthiazol-5-yl)phenyl)ethyl)pyrrolidine-2-carboxamide]	< 10		< 50	A (“A” indicates maximum degradation ≥75%)

Now from value to compound, other results behind:

DC50 [1] [nM]	DC50 [2] [nM]	Dmax [2] [%]	Structure (SMILES)	BRM HiBit Degradation Maximum (%) [1]
< 10	> 10	> 75	Cc1ncsc1-c1ccc([C@H](C)NC(=O)[C@@H]2C[C@@H](O)CN2C(=O)[C@@H](c2cc(N3CCC4(CC[C@@H](c5ccc6nnc(-c7ccccc7O)cc6c5)C4)CC3)no2)C(C)C)cc1 [Compound 76, (2S,4R)-4-hydroxy-1-((R)-2-(3-((R)-2-(3-(2-hydroxyphenyl)cinnolin-6-yl)-8-azaspiro[4.5]decan-8-yl)isoxazol-5-yl)-3-methylbutanoyl)-N-((S)-1-(4-(4-methylthiazol-5-yl)phenyl)ethyl)pyrrolidine-2-carboxamide]	A (“A” indicates maximum degradation ≥75%)
< 10		< 50	Cc1ncsc1-c1ccc([C@H](C)NC(=O)[C@@H]2C[C@@H](O)CN2C(=O)[C@@H](c2cc(-c3cnc(N4CC(c5cc(C6CC6)c6cc(-c7ccccc7O)nnc6c5)C4)nc3)no2)C(C)C)cc1 [Compound 77, (2S,4R)-1-((R)-2-(3-(2-(3-(5-cyclopropyl-3-(2-hydroxyphenyl)cinnolin-7-yl)azetidin-1-yl)pyrimidin-5-yl)isoxazol-5-yl)-3-methylbutanoyl)-4-hydroxy-N-((S)-1-(4-(4-methylthiazol-5-yl)phenyl)ethyl)pyrrolidine-2-carboxamide]	A (“A” indicates maximum degradation ≥75%)
< 10	< 10	> 75	Cc1ncsc1-c1ccc([C@H](C)NC(=O)[C@@H]2C[C@@H](O)CN2C(=O)[C@@H](c2cc(-c3cnc(N4CC(c5cc6cc(-c7ccccc7O)nnc6cc5C5CC5)C4)nc3)no2)C(C)C)cc1 [Compound 79, (2S,4R)-1-((R)-2-(3-(2-(3-(7-cyclopropyl-3-(2-hydroxyphenyl)cinnolin-6-yl)azetidin-1-yl)pyrimidin-5-yl)isoxazol-5-yl)-3-methylbutanoyl)-4-hydroxy-N-((S)-1-(4-(4-methylthiazol-5-yl)phenyl)ethyl)pyrrolidine-2-carboxamide]	A (“A” indicates maximum degradation ≥75%)

— patent US20260193264A1, “BENZOYPARAZINE PYRAZINES AND THEIR USES” (FOGHORN THERAPEUTICS INC., priority 2022, published 2026)
